Read-outs that look alike come from different tables or passages of the source.
How the values were obtained:
Format in all cases: cell-based
A549 = test: SRB cytotoxicity (anti-tumor activity) in vitro, A549; conditions: Homo sapiens
Description: (§1) Anti-Tumor (Cyto-Toxicity) Effect in vitro of the Compound According to the Present Invention
(§2) The method for detecting cyto-toxicity employed in the present experiment is Sulforhodamin B Bioassay (SRB) method, which was developed by National Cancer Institute (NCI) in the United States in 1989, for the purpose of measuring anti-tumor activity in vitro.
(§3) The tumor cells used in the experiments via SRB method are listed below:
A549: non small cell lungcarcinoma
(§4) The tumor cells listed above are all human tumor cell-lines, which were distributed from NCI in the United States and subcultured in Korea Chemical Institute. As a culture medium, RPMI 1640 culture medium supplemented with 5% FBS (fetal bovine serum) was used. Cultivation was performed in an 5% CO2 incubator with constant temperature (37° C.) and humidity. The subculture was carried out every three or four days, and a solution of 0.25% tyrosine and 3 mM trans-1,2-diaminocyclohexane-n,n,n,n-tetracetic acid (CDTA) dissolved in PBS (phosphate buffered saline) was used in order to release cells from the surface of the container.
(§5) The test compound synthesized according to the present invention was diluted to have a concentration of 30.0 μg/ml, 10.0 μg/ml, 3.0 μg/ml, 1.0 μg/ml, 0.3 μg/ml and 0.1 μg/ml, respectively, and the cyto-toxicity (anti-tumor activity) of the compound was measured. The maximum concentration of the sample was not more than 30.0 μg/ml. In order to prepare the samples for detection, DMSO (dimethylsulfoxide) was used, if necessary. The concentration of DMSO added was not more than 0.5%. Before added to the tumor cells, the sample solution, which was diluted via several steps, is filtered through a Millipore filter. In a sterile condition, the sample for detecting cyto-toxicity was prepared by means of SRB method using human tumor cell-lines such as A549, SK-OV-3, SK-MEL-2, XF498 and HCT15.
(§6) The subcultured tumor cells were released from the surface of instrument by using tyrosine-CDTA solution, and then charged on a 96-well flat bottom microplate to make the cell number 5×10^3 (A549, HCT15), 1×10^4 (SK-MEL-2, XF498) and 2×10^4 (SK-OV-3) for each cell. The tumor cells are attached on the bottom by cultivating in a CO2 incubator. After removing the culture medium by using an aspirator, the medium is eliminated by using log dose of six concentrations. To each well, 100 μl of 10% TCA (trichloroacetic acid) is added, and the plate was left for 1 hour at 4° C. to fix the cells on the bottom surface of the plate.
(§7) Then, the plate was washed with distilled water 5-6 times to completely remove the residual TCA solution, and dried up at room temperature. To each well of the completely dried plate, 100 μl of dye solution, in which 0.4% SRB solution was dissolved, was added to dye the cells for 30 minutes, and the cells were washed with 1% acetic acid to remove excess SRB which was not combined with the cells. The dyed cell plates were dried at room temperature, and 100 μl of 10 mM trisma base solution was added to each well. The solution was mixed by a titer plate shaker for 10 minutes to elute the dye solution. Then, the absorbance at 520 nm was measured by using a microplate reader.
(§8) In order to calculate the cyto-toxicity (anti-tumor activity) of the samples on tumor cells, the number of tumor cells at the point of adding the sample (Tz, zero time), the number of cells when only an excess amount of culture medium was added instead of the sample and cultured for 48 hours (C, control), and the number of cells when each concentration of the sample was added and cultured for 48 hours (T, test) were measured respectively. The cyto-toxicity was determined according to the following formulas:
(§9) When Tz>T: [(T-Tz)/(C-Tz)]×100
(§10) When Tz<T: [(T-Tz)/Tz]×100
(§11) From the calculated values thus obtained, ED50 (50% effective dose) [the concentration when the sample inhibits 50% of the growth of the tumor cells] was determined by the use of data regression tool of LOTUS program. […]

XF498 = test: SRB cytotoxicity (anti-tumor activity) in vitro, XF498; conditions: Homo sapiens, XF498 central nerve system tumor, 48 hours, read-out: ED50 (the source's name)
Description: as §1, §2, §3
XF498: central nerve system tumor
as §4, §5, §6, §7, §8, §9, §10, §11

HCT15 = test: SRB cytotoxicity (anti-tumor activity) in vitro, HCT15; conditions: Homo sapiens, HCT-15, HCT15 colon adenocarcinoma, 48 hours, read-out: ED50 (the source's name)
Description: as §1, §2, §3
HCT15: colon adenocarcinoma
as §4, §5, §6, §7, §8, §9, §10, §11

SK-OV-3 = test: SRB cytotoxicity (anti-tumor activity) in vitro, SK-OV-3; conditions: Homo sapiens, SK-OV-3 ovary adenocarcinoma, 48 hours, read-out: ED50 (the source's name)
Description: as §1, §2, §3
SK-OV-3: adenocarcinoma, ovary malignant ascites
as §4, §5, §6, §7, §8, §9, §10, §11

SK-MEL-2 = test: SRB cytotoxicity (anti-tumor activity) in vitro, SK-MEL-2; conditions: Homo sapiens, SK-MEL-2 malignant melanoma, 48 hours, read-out: ED50 (the source's name)
Description: as §1, §2, §3
SK-MEL-2: malignant melanoma, metastasis to skin of thigh
as §4, §5, §6, §7, §8, §9, §10, §11

[1] = A549 non small cell lung carcinoma, SRB, 48 hours, read-out: ED50 (the source's name)

Structure (SMILES) | IC50 (A549; A549, 48 h, read-out: ED50) | IC50 (XF498) | IC50 (HCT15) | IC50 (SK-OV-3) | IC50 (SK-MEL-2) | IC50 (A549; [1])
CC(=O)Oc1ccc(C2(COC(=O)Cc3ccccc3)CO2)c(OC(C)=O)c1 (stereo not drawn) [Compound 27-1, 2-(2',4'-Diacetoxyphenyl)-3-phenylacetoxy-1,2-epoxypropane] | 30.6 µM | 4.7 µM | 3 µM | 2.9 µM | 4.5 µM | 
CC(=O)Oc1ccc(C2(COC(=O)Cc3ccc([N+](=O)[O-])cc3)CO2)c(OC(C)=O)c1 (stereo not drawn) [Compound 27-2, 2-(2',4'-Diacetoxyphenyl)-3-(4-nitrophenylacetoxy)-1,2-epoxypropane] |  | 4.1 µM | 2.4 µM | 2.7 µM | 3.8 µM | 23.5 µM
CC(=O)Oc1ccc(C2(COC(=O)Cc3ccc(F)cc3)CO2)c(OC(C)=O)c1 (stereo not drawn) [Compound 27-3, 2-(2',4'-Diacetoxyphenyl)-3-(4-fluorophenylacetoxy)-1,2-epoxypropane] |  | 11 µM | 4.5 µM | 3.9 µM | 9.3 µM | 36.7 µM
CC(=O)OCC1(c2ccc(OC(C)=O)cc2OC(C)=O)CO1 (stereo not drawn) [Compound 27-5, 2-(2',4'-Diacetoxyphenyl)-3-acetoxy-1,2-epoxypropane] |  | 5 µM | 1.4 µM | 2.9 µM | 4.8 µM | 18.6 µM
CC(=O)Oc1ccccc1C1(COC(=O)Cc2ccccc2)CO1 (stereo not drawn) [Compound 33-1] | 42.8 µM | 9.8 µM | 10.4 µM | 11.5 µM | 9.3 µM | 
CC(=O)Oc1ccccc1C1(COC(=O)Cc2ccc([N+](=O)[O-])cc2)CO1 (stereo not drawn) [Compound 33-2] |  | 16.4 µM | 17.3 µM | 24.4 µM | 14.2 µM | 44.3 µM
CC(=O)Oc1ccccc1C1(COC(=O)c2ccccc2)CO1 (stereo not drawn) [Compound 33-5] |  | 6.2 µM | 7 µM | 9.9 µM | 8.5 µM | 43.3 µM
CC(=O)Oc1ccccc1C1(COC(=O)c2ccc(C)cc2)CO1 (stereo not drawn) [Compound 33-6] |  | 8.7 µM | 9.3 µM | 10.6 µM | 6.9 µM | 41.4 µM
C=C(CO)c1ccc(C)cc1OCc1ccc([N+](=O)[O-])cc1 [Compound 35, 2-(2-(4'-nitrobenzyloxy)-4-methylphenyl)-prop-2-ene-1-ol] |  | 5.5 µM | 8.7 µM | 0.3 µM | 9.1 µM | 4.6 µM
C=C(CO)c1ccc(C)cc1OCc1ccc(OC)cc1 [Compound 35-1] |  | 11.8 µM | 12.1 µM | 13.1 µM | 12.7 µM | 10.6 µM
C=C(CO)c1ccc(C)cc1OCc1ccc(C)cc1 [Compound 35-2, 2-(2-(4'-Methylbenzyloxy)-4-methylphenyl)-prop-2-ene-1-ol] |  | 7.2 µM | 9.1 µM | 9.6 µM | 8.8 µM | 10.9 µM
C=C(CO)c1ccc(C)cc1OS(=O)(=O)c1ccc(C)cc1 [Compound 35-3, 2-(2-(4'-Toluenesulfoxy)-4-methylphenyl)-prop-2-ene-1-ol] |  | 14 µM | 13.9 µM | 14.6 µM | 17.9 µM | 13.1 µM

Reference: patent publication US6255517A, “Thymol derivatives having anti-tumor activity, and anti-cancer agent comprising the same” (Zee; Ok Pyo, priority 1998, dated 2001)
